The source of these data is PMC5905120, “An innovative immunotherapeutic strategy for ovarian cancer: CLEC10A and glycomimetic peptides” (Journal for Immunotherapy of Cancer, 2018).

Assay [1] has as its system ASGPR-1. The assay is described as follows: Inhibition of svL4 binding to ASGPR-1. Further details: species or system human. Conditions: 75 μM asialofetuin, 0.2 μM svL4. As to the method: Solid-phase binding assays were performed with streptavidin-, protein A/G-, or Nickel-coated microtiter plates (Pierce). His-tagged or Fc-fusion recombinant receptors (R&D Systems, Minneapolis, MN) were reconstituted in PBS. Sufficient receptors were added to wells to saturate the coating. His-tagged receptors were added to each well at a 5-fold excess over the stated capacity of the Ni coating to minimize non-specific binding of the peptide. […] The wells were washed four times with binding buffer and then incubated with 50 μL of 1 μg/mL streptavidin conjugated with peroxidase (Sigma-Aldrich) for 1 h. The wells were washed five times with binding buffer and 50 μL of peroxidase substrate (1-Step™ Ultra TMB, Pierce) were added. After several minutes to allow color development, the reaction was stopped with 50 μL 1 M H3PO4 and absorbance was measured at 450 nm. Bound streptavidin was quantitated by the specific activity of peroxidase (absorbance/ng protein conjugate/min) under the conditions of the assay.
Corresponding values for binding of svL4 to CLEC10A and ASGPR-1 of 0.24 ± 0.04 μM and 0.21 ± 0.03 μM, respectively, were obtained.

Assay [2] deals with ASGPR-1. As to conditions: ASGPR-1; ref [43]; cited from earlier work. As to the method: The type II C-type lectin asialoglycoprotein receptor-1 (ASGPR-1, Ashwell-Morell receptor, CLEC4H1) on hepatic cells also binds GalNAc-containing structures. ASGPR-1 has a 60-fold greater preference for GalNAc over Gal. Each healthy rat hepatocyte expresses 4 to 5 × 10^5 molecules of ASGPR-1 as binding sites for asialo-orosomucoid or 1.8 × 10^6 molecules as determined by an ASGPR-1-targeted antibody, which provides a surface concentration for the receptor of 0.8 to 1 μM. […] Corresponding values for binding of svL4 to CLEC10A and ASGPR-1 of 0.24 ± 0.04 μM and 0.21 ± 0.03 μM, respectively, were obtained. […] Asialofetuin, a multi-glycosylated pro ...

For orientation: IC50 means the concentration at which inhibition is half-maximal. As for “Asialofetuin: multi-glycosylated protein”, in the assay on ASGPR-1 [1], the “inhibition of binding of svL4 to ASGPR-1” value was determined as 53%. Besides, the IC50 in the assay with ASGPR-1 [2] is 45.6 ± 2.7 µM.
